Consider eight molecules from patent US8975260B2, “Pyridazinones, method of making, and method of use thereof” (Genetech, Inc, priority 2010, dated 2015).

The test system of series [1] is CD69 by B lymphocytes in human whole blood. Description: CD69 Whole Blood Assay. It is filed as cell-based. The conditions noted are these: Lymphocyte; human whole blood activated with goat F(ab')2 anti-human IgM, 20 hours; CD69 positive cells that are also CD20 positive. From the text: A CD69 Whole Blood Assay can be conducted on Formula I compounds to determine the ability of compounds to inhibit the production of CD69 by B lymphocytes in human whole blood activated by crosslinking surface IgM with goat F(ab′)2 anti-human IgM (Example 907).
Human blood is obtained from healthy volunteers, with the following restrictions: 1 week drug-free, non-smokers. Blood (approximately 20 mls to test 8 compounds) is collected by venipuncture into Vacutainer® (Becton, Dickinson and Co.) tubes with sodium heparin.
Solutions of Formula I compounds at 10 mM in DMSO are diluted 1:10 in 100% DMSO, then are diluted by three-fold serial dilutions in 100% DMSO for a ten point dose-response curve. The compounds are further diluted 1:10 in PBS and then an aliquot of 5.5 μl of each compound is added in duplicate to a 2 ml 96-well plate; 5.5 μl of 10% DMSO in PBS is added as control and no-stimulus wells. Human whole blood—HWB (100 μl) is added to each well. After mixing the plates are incubated at 37° C., 5% CO2, 100% humidity for 30 minutes. […] Data acquired and Mean Fluorescence Intensity values were obtained using BD Biosciences DIVA Software. Results are initially analyzed by FACS analysis software (Flow Jo). […] The IC50 values are calculated by Prism version 5, using a nonlinear regression curve fit.

Series [2] addresses full length human wildtype Btk (Homo sapiens (Human), UniProt Q06187). Nature of the series: Biochemical Btk Kinase Assay. The procedure:
Formula I compounds were tested by a standard biochemical Btk Kinase Assay (Example 901). A generalized procedure for a standard biochemical Btk Kinase Assay that can be used to test Formula I compounds is as follows. […] Btk enzyme is prepared as follows: full length human wildtype Btk (accession number NM-000061) with a C-terminal V5 and 6× His tag was subcloned into pFastBac vector for making baculovirus carrying this epitope-tagged Btk. Generation of baculovirus is done based on Invitrogen's instructions detailed in its published protocol “Bac-to-Bac Baculovirus Expression Systems” (Cat. Nos. 10359-016 and 10608-016). […] A quantity of 1.25 μL of compounds in 5% DMSO is transferred to a 96-well ½ area Costar polystyrene plate. […] A quantity of 18.75 μL of master mix minus enzyme (as a negative control) and master mix plus enzyme is transferred to appropriate wells in 96-well ½ area costar polystyrene plate. […] The plate is read using time-resolved fluorescence with a Perkin Elmer Envision using excitation filter 330 nm, emission filter 665 nm, and 2nd emission filter 615 nm. IC50 values are subsequently calculated. Alternatively, the Lanthascreen assay can be used to evaluate Btk activity through quantification of its phosphorylated peptide product. […] Detection is determined on a Perkin Elmer Envision with 340 nm excitation and emission at 495 nm and 520 nm. […]

Chain of full length human wildtype Btk (Q06187 whole entry): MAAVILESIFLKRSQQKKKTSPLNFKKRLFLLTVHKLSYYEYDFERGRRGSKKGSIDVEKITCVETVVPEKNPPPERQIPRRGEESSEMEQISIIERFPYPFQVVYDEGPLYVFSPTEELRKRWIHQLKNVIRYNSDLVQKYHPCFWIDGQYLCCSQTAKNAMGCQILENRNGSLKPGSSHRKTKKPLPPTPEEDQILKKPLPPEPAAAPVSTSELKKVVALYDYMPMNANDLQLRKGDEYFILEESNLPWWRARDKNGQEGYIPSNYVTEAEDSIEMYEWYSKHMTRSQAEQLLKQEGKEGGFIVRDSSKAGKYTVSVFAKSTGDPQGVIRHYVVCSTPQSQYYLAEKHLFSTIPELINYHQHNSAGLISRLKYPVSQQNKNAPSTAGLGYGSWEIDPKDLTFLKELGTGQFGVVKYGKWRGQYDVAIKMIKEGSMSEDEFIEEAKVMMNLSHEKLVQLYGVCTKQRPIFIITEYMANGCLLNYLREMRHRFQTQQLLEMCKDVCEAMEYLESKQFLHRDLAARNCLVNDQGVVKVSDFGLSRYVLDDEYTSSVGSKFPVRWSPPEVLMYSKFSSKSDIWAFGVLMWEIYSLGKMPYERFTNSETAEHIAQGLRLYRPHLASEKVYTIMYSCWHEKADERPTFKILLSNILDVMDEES

In turn, `CCn1ccc(Nc2cc(-c3cccc(N4Cc5cc(C(C)(C)C)ccc5C4=O)c3CO)nn(C)c2=O)n1` [Compound 102, 5-tert-Butyl-2-(3-(5-(1-ethyl-1H-pyrazol-3-ylamino)-1-methyl-6-oxo-1,6-dihydropyridazin-3-yl)-2-(hydroxymethyl)phenyl)isoindolin-1-one] returned a melting point of 174 to 176 °C.
As for `Cn1nc(-c2cccc(N3Cc4cc(C(C)(C)C)ccc4C3=O)c2CO)cc(Nc2ccncn2)c1=O` [Compound 103, 5-tert-Butyl-2-(2-(hydroxymethyl)-3-(1-methyl-6-oxo-5-(pyrimidin-4-ylamino)-1,6-dihydropyridazin-3-yl)phenyl)isoindolin-1-one], the melting point is 236 to 238 °C.
With `Cn1nc(-c2cccc(N3Cc4cc(C(C)(C)C)ccc4C3=O)c2CO)cc(Nc2ccccn2)c1=O` [Compound 104, 5-tert-Butyl-2-(2-(hydroxymethyl)-3-(1-methyl-6-oxo-5-(pyridin-2-ylamino)-1,6-dihydropyridazin-3-yl)phenyl)isoindolin-1-one], the melting point was in the range of 236 to 237 °C.
`Cn1nc(-c2cccc(N3Cc4cc(C(C)(C)C)ccc4C3=O)c2CO)cc(Nc2ccn(C3CNC3)n2)c1=O` [Compound 105, 2-(3-(5-(1-(Azetidin-3-yl)-1H-pyrazol-3-ylamino)-1-methyl-6-oxo-1,6-dihydropyridazin-3-yl)-2-(hydroxymethyl)phenyl)-5-tert-butylisoindolin-1-one]: the melting point is 202 to 204 °C.
Still for that read-out and setting: as for `CCN(C)c1ccc2c(c1)CN(c1cccc(-c3cc(Nc4cc5n(n4)CCN(C)C5)c(=O)n(C)n3)c1CO)C2=O` [Compound 106, 5-(Ethyl(methyl)amino)-2-(2-(hydroxymethyl)-3-(1-methyl-5-(5-methyl-4,5,6,7-tetrahydropyrazolo[1,5-a]pyrazin-2-ylamino)-6-oxo-1,6-dihydropyridazin-3-yl)phenyl)isoindolin-1-one], the figure is 145 to 147 °C.
Turning to `Cc1c(-c2cc(Nc3cc4n(n3)CCN(C)C4)c(=O)[nH]n2)cccc1N1Cc2ccc(C(C)(C)C)cc2C1=O` [Compound 107, 6-tert-Butyl-2-(2-methyl-3-(5-(5-methyl-4,5,6,7-tetrahydropyrazolo[1,5-a]pyrazin-2-ylamino)-6-oxo-1,6-dihydropyridazin-3-yl)phenyl)isoindolin-1-one], the melting point lay within 208 to 210 °C. Besides, in series [1], inhibition was half-maximal at 461 nM (IC50). This molecule also registered an IC50 in series [2] of 14 nM.
`Cc1c(-c2cc(Nc3cc4n(n3)CCN(C)C4)c(=O)n(COP(=O)([O-])[O-])n2)cccc1N1Cc2cc(C(C)(C)C)sc2C1=O.[Na+].[Na+]` [Compound 108, Sodium (3-(3-(2-tert-Butyl-6-oxo-4H-thieno[2,3-c]pyrrol-5(6H)-yl)-2-methylphenyl)-5-(5-methyl-4,5,6,7-tetrahydropyrazolo[1,5-a]pyrazin-2-ylamino)-6-oxopyridazin-1(6H)-yl)methyl Phosphate] registered a melting point of 240 to 242 °C.
For the molecule `CN1CCn2nc(Nc3cc(-c4cccc(N5Cc6cc(C(C)(C)C)ccc6C5=O)c4CO)nn(C)c3=O)cc2C1` [Compound 145, 5-tert-butyl-2-[2-(hydroxymethyl)-3-[1-methyl-5-({5-methyl-4H,5H,6H,7H-pyrazolo[1,5-a]pyrazin-2-yl}amino)-6-oxo-1,6-dihydropyridazin-3-yl]phenyl]-2,3-dihydro-1H-isoindol-1-one], in series [1], inhibition was half-maximal at 91 nM (IC50).
